# According to patent publication US5856506A, “Phosphatase inhibitors and methods of use thereof” (University of Pittsburgh, priority 1997, dated 1999):
# Columns and labels:
# Recombinant human CDC25B = test: CDC25B phosphatase assay, GST fusion protein, fluorescein diphosphate; assay type: biochemical; conditions: none = 100; 1 hour preincubation; concentration not given (0.3-100 μM tested)
# Description: The compounds of the present invention are also capable of inhibiting dual specificity phosphatases, for example CDC25A and CDC25B. Phosphatases CDC25A and CDC25B are disclosed in U.S. Pat. No. 5,441,880. Inhibition of dual specificity phosphatases is defined herein as inhibition of the activity of CDC25A and/or CDC25B at a concentration of 100 μM of the inhibitor compound. In a preferred embodiment, the activity of the phosphatase is inhibited by at least 10%. In more preferred embodiments, the activity of the phophatase is inhibited by at least 25%, or even more preferably, by at least 50%. The ability of the compounds of the present invention to inhibit the phosphatases can be determined by measuring the effect of the compounds on the ability of CDC25 or CDC25B to dephosphorylate a substrate. Appropriate methods are known to those of ordinary skill in the art, and include, for example, calorimetric assays. A suitable assay is described in U.S. Pat. No. 5,441,880, the disclosure of which is incorporated herein by reference. […] The assay may be performed as a rapid calorimetric microtitration plate assay.
# Compounds 1a-1r were assessed for ability to inhibit CDC25A and CDC25B activity. Recombinant human CDC25A and CDC25B were obtained as a glutahione-S-transferase (GST) fusion protein using human cDNA and standard molecular biological methods. The cDNA constructs are in a plasmid that is expressed in E. coli under the control of isopropyl-beta-D-[…] (IPTG). The bacterial pellet was disrupted by sonication, and centrifuged at 10,000×g. Using glutathione-agarose beads, the fusion protein was purified from postmicrosomal supernant fraction as described by Baratte et al. (1992) Anticancer Res. 12: 873-880. Phosphatase activity was assayed with a spectrofluorimeter under the following conditions: 1 unit (1 U=amount of protein that induces 33 fluoresence units/minute of product) of fusion protein in a final incubation mixture (150 μL) comprised of 25 mM Tris (pH=8.0), 5 mM EDTA, 33 μg/ml BSA, and 20 μM fluorescein diphosphate in 96-well microtiter plates. Plates were preincubated for 1 hour with 0 (control), 0.3, 1, 3, 10, 30, 100 μM compounds at room temperature. After the 1 hour incubation at room temperature, fluorescence of the fluorescein product (Ex. 485 nm; Em. 530 nm) were measured with a Biosystems Cytofluor II (Framingham, Mass.).
# MDA-MB-231 cells = test: Cell cycle distribution by flow cytometry (propidium iodide); assay type: cell-based, human; conditions: for cell cycle distribution: 88 μM, MDA-MB-231
# From the text: FIGS. 10A-D depict cell cycle distribution of human breast cancer cells after treatment with compound 1f determined by flow cytometry. […] Fluorescence channel measures intracellular propidium iodide concentration, an index of DNA content. Horizontal bars are the gating positions that allow for cell cycle analysis. […] Open bars are control cells and black bars are cells treated with compound 1f. […] The mean values were obtained from three independent determinations. Open bars are control cells and black bars are cells treated with 88 μM compound 1f.
# MDA-MB-231 cells (6.5×10^5 /cm^2) were plated and incubated at 37° C. for 48 h. The plating medium was then aspirated off, and medium containing a concentration of compound 1f that caused approximately 50% growth inhibition (88-100 μM) was added for 48 to 72 h. Untreated cells at a similar cell density were used as control populations. Single cell preparations were fixed in ice-cold 1% paraformaldehyde, centrifuged at 1,000×g for 5 min, resuspended in Puck's saline, centrifuged, and resuspended in ice-cold 70% ethanol overnight. The cells were removed from fixatives by centrifugation (1,000×g for 5 min) and stained with a 5 μg/mL propidium iodide and 50 μg/mL RNase A solution. Flow cytometry analyses were conducted with a Becton Dickinson FACS Star. Single parameter DNA histograms were collected for 10,000 cells, and cell cycle kinetic parameters calculated using DNA cell cycle analysis software version C (Becton Dickinson). Experiments at 72 h were performed at least 3 independent times.
structure (smiles),measurement,setting,value
CCCCCCCCCC(=O)NC(CCC(=O)N(CCNC(=O)c1nc(-c2ccccc2)oc1-c1ccccc1)Cc1ccccc1)C(=O)O (stereo not shown) [Compound 1f],"CDC25B activity remaining, percent of control",Recombinant human CDC25B,15%
same,cell cycle distribution,MDA-MB-231 cells; 48 h,prominent accumulation in the Gi phase with a concomitant decrease in both S and G2/M phases
same,cell cycle distribution,MDA-MB-231 cells; 72 h,prominent accumulation in the G1 phase
same,site of blockage in cell cycle progression,"MDA-MB-231 cells; MDA-MB-231, conclusion",blockage in cell cycle progression is at the G1 checkpoint
